ChEMBL document CHEMBL3045262, “Synthesis and Insecticidal Activity of Novel 1-Benzoyl-3-phenylurea Derivatives with Polyfluoroethylsulfenyl, -sulfonyl, and-sulfinyl Substituents” (1992)

Legend:
Assay type in all cases: functional
Adoxophyes orana = assay: Larvicidal activity against second-instar larvae of Adoxophyes orana infested soybean seedling assessed as mortality at 5 ppm measured after 7 days; conditions: 168 h
Plutella xylostella = assay: Larvicidal activity against second-instar larvae of Plutella xylostella (diamondback moth) infested raddish seedling assessed as mortality at 3.3 ppm sprayed 2 hr prior to infestation measured after 4 days
Spodoptera litura [1] = assay: Larvicidal activity against third-instar larvae of Spodoptera litura infested in soybean seedling assessed as mortality at 2 ppm sprayed 6 days prior to infestation measured after 5 days
Spodoptera litura [2] = assay: Larvicidal activity against third-instar larvae of Spodoptera litura infested in soybean seedling assessed as mortality at 2 ppm sprayed 1 day prior to infestation measured after 5 days

Compound: Cc1cc(S(=O)(=O)C(F)(F)C(F)F)c(C)cc1NC(=O)NC(=O)c1c(F)cccc1F
- mortality at 5 ppm (Adoxophyes orana): 95%
- mortality at 3.3 ppm (Plutella xylostella): 100%
- mortality at 2 ppm (Spodoptera litura [1]): 100%
- mortality at 2 ppm (Spodoptera litura [2]): 100%

Compound: O=C(NC(=O)c1c(F)cccc1F)Nc1ccc(S(=O)(=O)C(F)(F)C(F)Cl)cc1F (configuration not stated)
- mortality at 5 ppm (Adoxophyes orana): 100%
- mortality at 3.3 ppm (Plutella xylostella): 100%
- mortality at 2 ppm (Spodoptera litura [1]): 100%
- mortality at 2 ppm (Spodoptera litura [2]): 100%

Compound: O=C(NC(=O)c1c(F)cccc1F)Nc1cc(Cl)c(SC(F)(F)C(F)F)cc1Cl
- mortality at 5 ppm (Adoxophyes orana): 100%
- mortality at 3.3 ppm (Plutella xylostella): 100%
- mortality at 2 ppm (Spodoptera litura [1]): 85%
- mortality at 2 ppm (Spodoptera litura [2]): 100%

Compound: Cc1cc(SC(F)(F)C(F)F)c(C)cc1NC(=O)NC(=O)c1c(F)cccc1F
- mortality at 5 ppm (Adoxophyes orana): 90%
- mortality at 3.3 ppm (Plutella xylostella): 85%
- mortality at 2 ppm (Spodoptera litura [1]): 100%
- mortality at 2 ppm (Spodoptera litura [2]): 100%

Compound: Cc1cc(SC(F)(F)C(F)F)ccc1NC(=O)NC(=O)c1c(F)cccc1F
- mortality at 5 ppm (Adoxophyes orana): 100%
- mortality at 3.3 ppm (Plutella xylostella): 100%
- mortality at 2 ppm (Spodoptera litura [1]): 100%
- mortality at 2 ppm (Spodoptera litura [2]): 95%

Compound: O=C(NC(=O)c1c(F)cccc1F)Nc1cc(Cl)c(S(=O)(=O)C(F)(F)C(F)F)cc1Cl
- mortality at 5 ppm (Adoxophyes orana): 90%
- mortality at 3.3 ppm (Plutella xylostella): 95%
- mortality at 2 ppm (Spodoptera litura [1]): 95%
- mortality at 2 ppm (Spodoptera litura [2]): 100%

Compound: O=C(NC(=O)c1c(F)cccc1F)Nc1cc(Cl)c(S(=O)(=O)C(F)(F)C(F)Cl)cc1Cl (configuration not stated)
- mortality at 5 ppm (Adoxophyes orana): 100%
- mortality at 3.3 ppm (Plutella xylostella): 100%
- mortality at 2 ppm (Spodoptera litura [1]): 95%
- mortality at 2 ppm (Spodoptera litura [2]): 100%

Compound: O=C(NC(=O)c1c(F)cccc1F)Nc1ccc(SC(F)(F)C(F)Cl)cc1Cl (configuration not stated)
- mortality at 5 ppm (Adoxophyes orana): 100%
- mortality at 3.3 ppm (Plutella xylostella): 100%
- mortality at 2 ppm (Spodoptera litura [1]): 100%
- mortality at 2 ppm (Spodoptera litura [2]): 100%

Compound: Cc1c(NC(=O)NC(=O)c2c(F)cccc2F)ccc(SC(F)(F)C(F)Cl)c1C (configuration not stated)
- mortality at 5 ppm (Adoxophyes orana): 100%
- mortality at 3.3 ppm (Plutella xylostella): 100%
- mortality at 2 ppm (Spodoptera litura [1]): 100%
- mortality at 2 ppm (Spodoptera litura [2]): 100%

Compound: O=C(NC(=O)c1c(F)cccc1F)Nc1ccc(S(=O)(=O)C(F)(F)C(F)F)cc1F
- mortality at 5 ppm (Adoxophyes orana): 100%
- mortality at 3.3 ppm (Plutella xylostella): 100%
- mortality at 2 ppm (Spodoptera litura [1]): 100%
- mortality at 2 ppm (Spodoptera litura [2]): 100%

Compound: O=C(NC(=O)c1c(F)cccc1F)Nc1ccc([S+]([O-])C(F)(F)C(F)Cl)c(Cl)c1Cl (configuration not stated)
- mortality at 5 ppm (Adoxophyes orana): 100%
- mortality at 3.3 ppm (Plutella xylostella): 100%
- mortality at 2 ppm (Spodoptera litura [1]): 100%
- mortality at 2 ppm (Spodoptera litura [2]): 100%

Compound: O=C(NC(=O)c1c(F)cccc1F)Nc1ccc(SC(F)(F)C(F)Cl)cc1 (configuration not stated)
- mortality at 5 ppm (Adoxophyes orana): 40%
- mortality at 3.3 ppm (Plutella xylostella): 100%
- mortality at 2 ppm (Spodoptera litura [1]): 45%
- mortality at 2 ppm (Spodoptera litura [2]): 65%

Compound: O=C(NC(=O)c1c(F)cccc1F)Nc1ccc([S+]([O-])C(F)(F)C(F)F)c(Cl)c1Cl (configuration not stated)
- mortality at 5 ppm (Adoxophyes orana): 85%
- mortality at 3.3 ppm (Plutella xylostella): 100%
- mortality at 2 ppm (Spodoptera litura [1]): 100%
- mortality at 2 ppm (Spodoptera litura [2]): 100%

Compound: O=C(NC(=O)c1c(F)cccc1F)Nc1cc(Cl)c(SC(F)(F)C(F)Cl)cc1Cl (configuration not stated)
- mortality at 5 ppm (Adoxophyes orana): 100%
- mortality at 3.3 ppm (Plutella xylostella): 100%
- mortality at 2 ppm (Spodoptera litura [1]): 100%
- mortality at 2 ppm (Spodoptera litura [2]): 100%

Compound: O=C(NC(=O)c1c(F)cccc1F)Nc1ccc(S(=O)(=O)C(F)(F)C(F)F)cc1Br
- mortality at 5 ppm (Adoxophyes orana): 40%
- mortality at 3.3 ppm (Plutella xylostella): 65%
- mortality at 2 ppm (Spodoptera litura [1]): 85%
- mortality at 2 ppm (Spodoptera litura [2]): 100%

Compound: O=C(NC(=O)c1c(F)cccc1F)Nc1ccc(SC(F)(F)C(F)F)c(Cl)c1Cl
- mortality at 5 ppm (Adoxophyes orana): 100%
- mortality at 3.3 ppm (Plutella xylostella): 100%
- mortality at 2 ppm (Spodoptera litura [1]): 100%
- mortality at 2 ppm (Spodoptera litura [2]): 100%

Compound: Cc1cc([S+]([O-])C(F)(F)C(F)Cl)c(C)cc1NC(=O)NC(=O)c1c(F)cccc1F (configuration not stated)
- mortality at 5 ppm (Adoxophyes orana): 100%
- mortality at 3.3 ppm (Plutella xylostella): 100%
- mortality at 2 ppm (Spodoptera litura [1]): 100%
- mortality at 2 ppm (Spodoptera litura [2]): 100%

Compound: O=C(NC(=O)c1c(F)cccc1F)Nc1ccc(S(=O)(=O)C(F)(F)C(F)F)cc1
- mortality at 3.3 ppm (Plutella xylostella): 90%
- mortality at 2 ppm (Spodoptera litura [1]): 0%
- mortality at 2 ppm (Spodoptera litura [2]): 0%

Compound: Cc1c(NC(=O)NC(=O)c2c(F)cccc2F)ccc(S(=O)(=O)C(F)(F)C(F)Cl)c1C (configuration not stated)
- mortality at 5 ppm (Adoxophyes orana): 100%
- mortality at 3.3 ppm (Plutella xylostella): 100%
- mortality at 2 ppm (Spodoptera litura [1]): 100%
- mortality at 2 ppm (Spodoptera litura [2]): 100%

Compound: Cc1cc([S+]([O-])C(F)(F)C(F)F)c(C)cc1NC(=O)NC(=O)c1c(F)cccc1F (configuration not stated)
- mortality at 5 ppm (Adoxophyes orana): 100%
- mortality at 3.3 ppm (Plutella xylostella): 100%
- mortality at 2 ppm (Spodoptera litura [1]): 100%
- mortality at 2 ppm (Spodoptera litura [2]): 100%

Compound: O=C(NC(=O)c1c(F)cccc1F)Nc1ccc(S(=O)(=O)C(F)(F)C(F)Cl)c(Cl)c1Cl (configuration not stated)
- mortality at 5 ppm (Adoxophyes orana): 100%
- mortality at 3.3 ppm (Plutella xylostella): 100%
- mortality at 2 ppm (Spodoptera litura [1]): 100%
- mortality at 2 ppm (Spodoptera litura [2]): 100%

Compound: Cc1cc(S(=O)(=O)C(F)(F)C(F)Cl)ccc1NC(=O)NC(=O)c1c(F)cccc1F (configuration not stated)
- mortality at 5 ppm (Adoxophyes orana): 95%
- mortality at 3.3 ppm (Plutella xylostella): 100%
- mortality at 2 ppm (Spodoptera litura [1]): 100%
- mortality at 2 ppm (Spodoptera litura [2]): 100%

Compound: O=C(NC(=O)c1c(F)cccc1F)Nc1ccc(SC(F)(F)C(F)F)cc1Cl
- mortality at 5 ppm (Adoxophyes orana): 100%
- mortality at 3.3 ppm (Plutella xylostella): 100%
- mortality at 2 ppm (Spodoptera litura [1]): 100%
- mortality at 2 ppm (Spodoptera litura [2]): 100%

Compound: O=C(NC(=O)c1c(F)cccc1F)Nc1ccc(SC(F)(F)C(F)F)cc1
- mortality at 5 ppm (Adoxophyes orana): 5%
- mortality at 3.3 ppm (Plutella xylostella): 100%
- mortality at 2 ppm (Spodoptera litura [1]): 20%
- mortality at 2 ppm (Spodoptera litura [2]): 55%

Compound: O=C(NC(=O)c1c(F)cccc1F)Nc1ccc(S(=O)(=O)C(F)(F)C(F)Cl)cc1Cl (configuration not stated)
- mortality at 5 ppm (Adoxophyes orana): 100%
- mortality at 3.3 ppm (Plutella xylostella): 95%
- mortality at 2 ppm (Spodoptera litura [1]): 100%
- mortality at 2 ppm (Spodoptera litura [2]): 100%

Compound: Cc1c(NC(=O)NC(=O)c2c(F)cccc2F)ccc([S+]([O-])C(F)(F)C(F)Cl)c1C (configuration not stated)
- mortality at 5 ppm (Adoxophyes orana): 100%
- mortality at 3.3 ppm (Plutella xylostella): 100%
- mortality at 2 ppm (Spodoptera litura [1]): 100%
- mortality at 2 ppm (Spodoptera litura [2]): 100%

Compound: Cc1cc([S+]([O-])C(F)(F)C(F)F)ccc1NC(=O)NC(=O)c1c(F)cccc1F (configuration not stated)
- mortality at 5 ppm (Adoxophyes orana): 100%
- mortality at 3.3 ppm (Plutella xylostella): 100%
- mortality at 2 ppm (Spodoptera litura [1]): 100%
- mortality at 2 ppm (Spodoptera litura [2]): 100%

Compound: O=C(NC(=O)c1c(F)cccc1F)Nc1ccc(S(=O)(=O)C(F)(F)C(F)F)cc1Cl
- mortality at 5 ppm (Adoxophyes orana): 100%
- mortality at 3.3 ppm (Plutella xylostella): 95%
- mortality at 2 ppm (Spodoptera litura [1]): 100%
- mortality at 2 ppm (Spodoptera litura [2]): 100%

Compound: Cc1cc(S(=O)(=O)C(F)(F)C(F)F)ccc1NC(=O)NC(=O)c1c(F)cccc1F
- mortality at 5 ppm (Adoxophyes orana): 100%
- mortality at 3.3 ppm (Plutella xylostella): 100%
- mortality at 2 ppm (Spodoptera litura [1]): 100%
- mortality at 2 ppm (Spodoptera litura [2]): 100%

Compound: O=C(NC(=O)c1c(F)cccc1F)Nc1ccc(S(=O)(=O)C(F)(F)C(F)F)c(Cl)c1
- mortality at 5 ppm (Adoxophyes orana): 100%
- mortality at 3.3 ppm (Plutella xylostella): 80%
- mortality at 2 ppm (Spodoptera litura [1]): 35%
- mortality at 2 ppm (Spodoptera litura [2]): 60%

Compound: Cc1cc(NC(=O)NC(=O)c2c(F)cccc2F)ccc1S(=O)(=O)C(F)(F)C(F)F
- mortality at 5 ppm (Adoxophyes orana): 25%
- mortality at 3.3 ppm (Plutella xylostella): 100%
- mortality at 2 ppm (Spodoptera litura [1]): 60%
- mortality at 2 ppm (Spodoptera litura [2]): 70%

Compound: Cc1cc(SC(F)(F)C(F)Cl)c(C)cc1NC(=O)NC(=O)c1c(F)cccc1F (configuration not stated)
- mortality at 5 ppm (Adoxophyes orana): 95%
- mortality at 3.3 ppm (Plutella xylostella): 100%
- mortality at 2 ppm (Spodoptera litura [1]): 100%
- mortality at 2 ppm (Spodoptera litura [2]): 100%

Compound: Cc1cc(SC(F)(F)C(F)Cl)ccc1NC(=O)NC(=O)c1c(F)cccc1F (configuration not stated)
- mortality at 5 ppm (Adoxophyes orana): 95%
- mortality at 3.3 ppm (Plutella xylostella): 100%
- mortality at 2 ppm (Spodoptera litura [1]): 100%
- mortality at 2 ppm (Spodoptera litura [2]): 100%

Compound: Cc1c(NC(=O)NC(=O)c2c(F)cccc2F)ccc(S(=O)(=O)C(F)(F)C(F)F)c1C
- mortality at 5 ppm (Adoxophyes orana): 100%
- mortality at 3.3 ppm (Plutella xylostella): 100%
- mortality at 2 ppm (Spodoptera litura [1]): 100%
- mortality at 2 ppm (Spodoptera litura [2]): 100%

Compound: O=C(NC(=O)c1c(F)cccc1F)Nc1cc(Cl)c([S+]([O-])C(F)(F)C(F)Cl)cc1Cl (configuration not stated)
- mortality at 5 ppm (Adoxophyes orana): 100%
- mortality at 3.3 ppm (Plutella xylostella): 100%
- mortality at 2 ppm (Spodoptera litura [1]): 100%
- mortality at 2 ppm (Spodoptera litura [2]): 100%

Compound: Cc1cc(NC(=O)NC(=O)c2c(F)cccc2F)ccc1SC(F)(F)C(F)F
- mortality at 5 ppm (Adoxophyes orana): 0%
- mortality at 3.3 ppm (Plutella xylostella): 100%
- mortality at 2 ppm (Spodoptera litura [1]): 100%
- mortality at 2 ppm (Spodoptera litura [2]): 100%

Compound: O=C(NC(=O)c1c(F)cccc1F)Nc1ccc([S+]([O-])C(F)(F)C(F)F)cc1 (configuration not stated)
- mortality at 3.3 ppm (Plutella xylostella): 100%
- mortality at 2 ppm (Spodoptera litura [1]): 15%
- mortality at 2 ppm (Spodoptera litura [2]): 5%

Compound: O=C(NC(=O)c1c(F)cccc1F)Nc1ccc(SC(F)(F)C(F)Cl)cc1Br (configuration not stated)
- mortality at 5 ppm (Adoxophyes orana): 100%
- mortality at 3.3 ppm (Plutella xylostella): 95%
- mortality at 2 ppm (Spodoptera litura [1]): 100%
- mortality at 2 ppm (Spodoptera litura [2]): 100%

Compound: O=C(NC(=O)c1c(F)cccc1F)Nc1ccc(S(=O)(=O)C(F)(F)C(F)Cl)cc1 (configuration not stated)
- mortality at 2 ppm (Spodoptera litura [1]): 0%
- mortality at 2 ppm (Spodoptera litura [2]): 0%
